Entries after “also recorded” stand apart in the source; their conditions may differ. Like-named read-outs stand apart in the source and are kept apart here.
Experiments:
[1] = Binding of pyridinium cations to sepharose-immobilized heparin (spectrophotometric); conditions: immobilized heparin 25 mg/mL, tested compounds 20÷100 μM in water, 5 minutes, room temperature
Source text: The presence of the heparin in the pyridinium salt solution changes the absorption spectrum of the salt through the non-specific electrostatic interactions of pyridinium cations with negatively charged heparin moieties. The use of water-insoluble sepharose-immobilized heparin which binds some fraction of pyridinium cations causes the decrease of the concentration of the salt in the solution.
At the high excess of the immobilized heparin in relation to the pyridinium salt concentration the degree of binding depends only on the heparin concentration. It allows, by using the experimental methodology described below, to estimate the degree of binding of different pyridinium compounds to heparin, provided that analogical concentrations of pyridinium salts and constant concentration of sepharose-immobilized heparin are used.
To estimate a degree of binding of the pyridinium_compounds with heparin spectrophotometric method based on the absorption measurements of aqueous solutions of tested compounds at 20÷100 μM before and after a contact with heparin was used.
The suspensions of immobilized heparin with the tested compounds were then placed into Eppendorf microtubes and centrifuged at 13 000 rpm for 4 minutes using FORCE 1418 microcentrifuge from Labnet Int. (Edison, N.J., USA). The UV-Vis absorption spectra of the resulting clear supernatants was measured with Perkin Elmer Lambda 40 spectrophotometer. All measurements were performed at room temperature. The degree of binding was estimated based on comparison of integrated area under the absorption curve for the solutions incubated and non-contacted with heparin.

platelet-rich thrombus [2] = conditions: Table 2; known anti-thrombotic activity, documented in WO 2005/067927; cited from earlier work
platelet-rich thrombus [3] = test: Thrombolytic response in vivo in rats with extracorporeal circulation (thrombus on collagen strip); design: species or system Wistar rats; conditions: for Thrombolytic response: Table 3, trigonelline and its thermal decomposition products; for thrombolytic response (in words) / thrombolytic response, maxima: 30 mg/kg intravenous; for thrombolytic response (in words): Wistar rats
Protocol: Thrombolytic activity was assayed by the method developed originally by Gryglewski et al., (Gryglewski R J, Korbut R, Ocetkiewicz A, Stachura J. In vivo method for quantitation for anti-platelet potency of drugs. Naunyn Schmiedebergs Arch Pharmacol 1978; 302:25-30; Gryglewski R J 1978, Gryglewski et al., 2001). The scheme of the method is shown on FIG. 1.
Wistar rats (body weight of 300-350 g) were anaesthetised (thiopental 95 mg/kg i.p) and heparinised (800 U/kg i.v.). Caniules were placed in arteries and connected from the left carotid artery vein with a pressure sensor and from the right carotid artery through heated (37° C.) line to peristaltic pomp. The blood from carotid artery was pumped to the extracorporeal circulation were it superfused (1.5 ml/min) a 3 cm collagen strip excised from Achilles tendon hung on a spring-balanced auxotonic lever of a Harvard 386 isotonic transducer and the weight of the collagen strip was continuously registered. After superfusion the blood was returned to the circulation of an animal. During superfusion a thrombus made of platelets aggregates stuck in the fibrin network (microscopically visualized by the Weigert method) was formed on the surface of the collagen strip. A pressure and the thrombus weight were continuously recorded.
Then the trigonelline thermolysate, 1-methylpyridine or 1,4-dimethylpyridine were injected intravenously into the femoral vein (30 mg·kg^−1).

Balb/c mice = test: Hepatoprotective effect in mice model of acute liver injury (Concanavalin A-induced hepatitis); type: in vivo; conditions: 100 mg/kg per os for 7 days, ConA 20 mg/kg i.v., 8 hours later
Protocol: Balb/c mice at the age of 2 months were treated for 7 days with 1,4-dimethylpyridinium chloride (100 mg/kg, per os) or were left untreated and then mice were injected with Concanavalin A (ConA) inducing T cell-mediated hepatitis. ConA was injected intravenously at a dose of 20 mg/kg and 8 hours later liver injury was assessed on the basis of transaminase (AST) level in plasma.

[4] = tested on: Zucker fatty rats (fa/fa); test: Antidiabetic effects in the rat model of metabolic syndrome (glucose injection); type: in vivo; conditions: 7 days treatment (thermolysate 100 mg/kg, metformin 500 mg/kg), glucose 2 g/kg i.p., 0-90 minutes
Protocol: After 7 days glucose was injected at 2 g/kg (i.p.) and postprandial hyperglycemia was analyzed in the following periods: 0, 15, 30, 60 and 90 minutes after the injection of glucose.

| Degree of binding [1] | Structure (SMILES) | Thrombolytic response (platelet-rich thrombus [2]) | thrombolytic response (in words) (platelet-rich thrombus [3]) | other results |
| --- | --- | --- | --- | --- |
| >5% | Cn1cc(C(N)=O)ccc1=O [2-PYR, 1-methyl-2-pyridone-5-carboxamide] | no |  |  |
| >5% | Cc1cc[n+](C)cc1C(=O)[O-] [4MeTryg, 4-methyltrigonelline] |  |  |  |
| >25% | CC(=O)c1ccc[n+](C)c1 [MAP^+, 1-methyl-3-acetyl-pyridine] | yes |  |  |
| >35% | C[n+]1cccc(C(=O)NCO)c1 [MNAF^+, 1-methyl-N′-(hydroxy-methyl) nicotinamide] | yes |  |  |
| ≈0% | NC(=O)c1cccnc1 [NA, nicotinamide] | no | lack of significant thrombolytic response | thrombolytic response, maxima (platelet-rich thrombus [3]): 9±0.6% |
| >40% | O=C(O)c1cccnc1 [NC, nicotinic acid] | no | lack of significant thrombolytic response | thrombolytic response, maxima (platelet-rich thrombus [3]): 5±0.9% |
| >10% | NC(=O)c1ccc[n+]([O-])c1 [N—OX, nicotinamide N-oxide] |  |  |  |
| ≈0% | C[n+]1cccc(C(=O)[O-])c1 [Tryg, trigonelline] |  | lack of significant thrombolytic response; also recorded: did not induce significant thrombolytic response | Thrombolytic response (platelet-rich thrombus [3]): no |
|  | CN(C)C(=N)N=C(N)N [metformin] |  |  | postprandial hyperglycemia induced by glucose injection [4]: decreased postprandial hyperglycemia |

| Structure (SMILES) | Degree of binding [1] | Thrombolytic response (platelet-rich thrombus [2]) | thrombolytic response (in words) (platelet-rich thrombus [3]) | other results |
| --- | --- | --- | --- | --- |
| Cc1cccc[n+]1C [12-DMP^+, 1,2-dimethylpyridine] | >15% |  |  |  |
| Cc1cc[n+](C)cc1 [14-DMP^+, 1,4-dimethylpyridine] | >20% |  |  | Thrombolytic response (platelet-rich thrombus [3]): yes; transaminase (AST) level in plasma after ConA injection (Balb/c mice): prevented a rise in AST levels |
| C[n+]1cccc(C(N)=O)c1 [MNA^+, 1-methyl-nicotinamide] | >45% | yes |  |  |
| C[n+]1ccccc1 [MP^+, 1-methylpyridine] | >25% |  | moderate thrombolytic response | Thrombolytic response (platelet-rich thrombus [3]): yes |

Reference: US8377972B2, “Use of quaternary pyridinium compounds for vasoprotection and/or hepatoprotection” (Trigendo Sp. zo.o., priority 2007, dated 2013)
